Measured values taken from publication PMC9951552 (Science translational medicine, 2022).
Several values for one entry are separate records, joined by “and”; a condition that tells them apart may be missing. Equal values may be shown once. Each block holds one compound with its values, some of them ahead of it.

Legend:
PfPI3K = details: read-out: IC50 PfPI3K; in vitro; cited from earlier work
[1] = test system: P. berghei ANKA GFP-Luc-SMcon sporozoites; experiment: P. berghei liver stage assay; assay type: cell-based; details: Plasmodium berghei, HepG2, read-out: IC50, inhibition of parasite invasion of HepG2 liver cells (liver stage)
[2] = test system: PfNF54 stage IV/V gametocytes; experiment: Late-stage gametocytocidal luciferase reporter assay; assay type: cell-based; details: Plasmodium falciparum, 48 h, read-out: IC50, viability of late-stage gametocytes
[3] = test system: PfNF54 stages II/III gametocytes; experiment: Early-stage gametocytocidal luciferase reporter assay; assay type: cell-based; details: Plasmodium falciparum, read-out: inhibition of early-stage gametocytes
[4] = test system: male gamete formation from stage V gametocytes; experiment: Male gamete exflagellation inhibition assay; assay type: cell-based; details: Plasmodium falciparum, 48 h, read-out: inhibition of male gamete formation (EIA)
[5] = test system: PfNF54 stage V gametocytes; experiment: Standard membrane feeding assay; design: species or system Plasmodium falciparum; details: 2 μM, stage V gametocytes incubated 48 hours before feeding; mean ±SD
Pf3D7 = experiment: P. falciparum NSG mouse model of infection, 4-day test; assay type: in vivo, Plasmodium falciparum; details: day 7, single daily oral dose for four days, NSG mice
Tolerability = assay type: in vivo; details: 10 mg/kg oral once daily, both animals
[6] = Whole-blood pharmacokinetics in NSG mouse efficacy study, LC-MS/MS; assay type: in vivo, NSG mice
PfNF54 strain = experiment: In vitro ABS activity against PfNF54 strain; assay type: cell-based; details: Plasmodium falciparum, read-out: in vitro IC50 against PfNF54 strain
PI4Kβ (PF3D7_0509800) = PI4Kβ (PF3D7_0509800) (Plasmodium falciparum, UniProt Q8I406); experiment: Kinobead chemoproteomic competition binding, Pf3D7 ABS extract; details: read-out: Kd app for PI4Kβ; Kinobeads, P. falciparum ABS extract
[7] = target: PI3K (Vps34; PF3D7_0515300) (Plasmodium falciparum, UniProt Q8I3V5); experiment: Lipid-Kinobead chemoproteomic competition binding, Pf3D7 ABS extract; details: read-out: Kd app for PI3K; Lipid-Kinobeads, N = 1
[8] = target: T1, cdc2-related protein kinase 5 (CRK5; PF3D7_0615500) (Plasmodium falciparum, UniProt C6KSZ6); experiment: Kinobead chemoproteomic competition binding, Pf3D7 ABS extract; details: read-out: Kd app for CRK5; Kinobeads, P. falciparum ABS extract
T1 sequence (C6KSZ6 1-705): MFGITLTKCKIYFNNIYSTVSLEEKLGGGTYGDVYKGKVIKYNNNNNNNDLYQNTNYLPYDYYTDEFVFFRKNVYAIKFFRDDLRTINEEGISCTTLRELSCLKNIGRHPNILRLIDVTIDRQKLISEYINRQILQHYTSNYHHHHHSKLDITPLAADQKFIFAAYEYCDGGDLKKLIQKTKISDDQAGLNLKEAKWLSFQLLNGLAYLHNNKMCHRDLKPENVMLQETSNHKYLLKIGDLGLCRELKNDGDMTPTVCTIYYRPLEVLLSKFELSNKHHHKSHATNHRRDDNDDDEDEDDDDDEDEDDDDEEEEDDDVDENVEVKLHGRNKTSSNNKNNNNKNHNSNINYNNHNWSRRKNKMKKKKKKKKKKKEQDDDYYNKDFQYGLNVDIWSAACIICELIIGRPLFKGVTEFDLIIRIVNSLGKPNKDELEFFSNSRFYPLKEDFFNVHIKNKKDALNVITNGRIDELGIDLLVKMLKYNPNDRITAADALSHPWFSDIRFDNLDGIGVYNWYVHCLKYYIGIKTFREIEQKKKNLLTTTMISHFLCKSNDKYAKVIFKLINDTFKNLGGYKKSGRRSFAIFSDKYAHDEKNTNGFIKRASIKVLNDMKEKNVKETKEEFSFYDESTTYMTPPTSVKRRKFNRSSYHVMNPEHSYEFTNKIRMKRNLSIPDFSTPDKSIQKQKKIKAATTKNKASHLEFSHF

[9] = target: casein kinase 1 (CK1; PF3D7_1136500) (Plasmodium falciparum, UniProt Q8IHZ9); experiment: as above
[10] = target: T2, protein kinase 2 (PK2; PF3D7_1238900) (Plasmodium falciparum, UniProt Q8I534); experiment: as above; details: read-out: Kd app for PK2; Kinobeads, P. falciparum ABS extract
T2 sequence (Q8I534 1-509): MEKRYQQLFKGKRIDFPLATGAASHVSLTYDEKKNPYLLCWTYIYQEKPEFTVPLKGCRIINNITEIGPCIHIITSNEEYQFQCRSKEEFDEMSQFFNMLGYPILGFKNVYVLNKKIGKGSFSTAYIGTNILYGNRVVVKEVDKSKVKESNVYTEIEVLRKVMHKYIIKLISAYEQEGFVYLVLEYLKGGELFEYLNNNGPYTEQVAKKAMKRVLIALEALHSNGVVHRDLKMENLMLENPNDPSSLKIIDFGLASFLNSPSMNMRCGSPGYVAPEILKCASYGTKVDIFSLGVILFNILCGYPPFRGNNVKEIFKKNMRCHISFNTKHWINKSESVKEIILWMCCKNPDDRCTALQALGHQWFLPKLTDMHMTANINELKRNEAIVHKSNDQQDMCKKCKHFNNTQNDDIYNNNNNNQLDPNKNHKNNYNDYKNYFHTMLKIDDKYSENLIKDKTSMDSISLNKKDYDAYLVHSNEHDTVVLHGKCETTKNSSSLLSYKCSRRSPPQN

Pf3D7 trophozoites = experiment: Metabolomic perturbation profiling by LC-MS; assay type: cell-based, Plasmodium falciparum; details: 10-fold the IC50 for 2.5 hours, vs no-drug control
[11] = test system: PKG (PF3D7_1436600) cKD parasite line; experiment: Susceptibility assay with PKG conditional knockdown line; details: low aTc (2 nM) vs high aTc
[12] = test system: PI3K (PF3D7_0515300) cKD parasite line; experiment: Susceptibility assay with PI3K conditional knockdown line; details: no aTc vs high aTc
[13] = test system: control cell line expressing an aptamer-regulatable fluorescent protein; experiment: Susceptibility assay with aptamer-regulatable control line; details: low vs high aTc
in vitro = details: human

Chain of PI3K (Vps34; PF3D7_0515300) (Q8I3V5 1-2133): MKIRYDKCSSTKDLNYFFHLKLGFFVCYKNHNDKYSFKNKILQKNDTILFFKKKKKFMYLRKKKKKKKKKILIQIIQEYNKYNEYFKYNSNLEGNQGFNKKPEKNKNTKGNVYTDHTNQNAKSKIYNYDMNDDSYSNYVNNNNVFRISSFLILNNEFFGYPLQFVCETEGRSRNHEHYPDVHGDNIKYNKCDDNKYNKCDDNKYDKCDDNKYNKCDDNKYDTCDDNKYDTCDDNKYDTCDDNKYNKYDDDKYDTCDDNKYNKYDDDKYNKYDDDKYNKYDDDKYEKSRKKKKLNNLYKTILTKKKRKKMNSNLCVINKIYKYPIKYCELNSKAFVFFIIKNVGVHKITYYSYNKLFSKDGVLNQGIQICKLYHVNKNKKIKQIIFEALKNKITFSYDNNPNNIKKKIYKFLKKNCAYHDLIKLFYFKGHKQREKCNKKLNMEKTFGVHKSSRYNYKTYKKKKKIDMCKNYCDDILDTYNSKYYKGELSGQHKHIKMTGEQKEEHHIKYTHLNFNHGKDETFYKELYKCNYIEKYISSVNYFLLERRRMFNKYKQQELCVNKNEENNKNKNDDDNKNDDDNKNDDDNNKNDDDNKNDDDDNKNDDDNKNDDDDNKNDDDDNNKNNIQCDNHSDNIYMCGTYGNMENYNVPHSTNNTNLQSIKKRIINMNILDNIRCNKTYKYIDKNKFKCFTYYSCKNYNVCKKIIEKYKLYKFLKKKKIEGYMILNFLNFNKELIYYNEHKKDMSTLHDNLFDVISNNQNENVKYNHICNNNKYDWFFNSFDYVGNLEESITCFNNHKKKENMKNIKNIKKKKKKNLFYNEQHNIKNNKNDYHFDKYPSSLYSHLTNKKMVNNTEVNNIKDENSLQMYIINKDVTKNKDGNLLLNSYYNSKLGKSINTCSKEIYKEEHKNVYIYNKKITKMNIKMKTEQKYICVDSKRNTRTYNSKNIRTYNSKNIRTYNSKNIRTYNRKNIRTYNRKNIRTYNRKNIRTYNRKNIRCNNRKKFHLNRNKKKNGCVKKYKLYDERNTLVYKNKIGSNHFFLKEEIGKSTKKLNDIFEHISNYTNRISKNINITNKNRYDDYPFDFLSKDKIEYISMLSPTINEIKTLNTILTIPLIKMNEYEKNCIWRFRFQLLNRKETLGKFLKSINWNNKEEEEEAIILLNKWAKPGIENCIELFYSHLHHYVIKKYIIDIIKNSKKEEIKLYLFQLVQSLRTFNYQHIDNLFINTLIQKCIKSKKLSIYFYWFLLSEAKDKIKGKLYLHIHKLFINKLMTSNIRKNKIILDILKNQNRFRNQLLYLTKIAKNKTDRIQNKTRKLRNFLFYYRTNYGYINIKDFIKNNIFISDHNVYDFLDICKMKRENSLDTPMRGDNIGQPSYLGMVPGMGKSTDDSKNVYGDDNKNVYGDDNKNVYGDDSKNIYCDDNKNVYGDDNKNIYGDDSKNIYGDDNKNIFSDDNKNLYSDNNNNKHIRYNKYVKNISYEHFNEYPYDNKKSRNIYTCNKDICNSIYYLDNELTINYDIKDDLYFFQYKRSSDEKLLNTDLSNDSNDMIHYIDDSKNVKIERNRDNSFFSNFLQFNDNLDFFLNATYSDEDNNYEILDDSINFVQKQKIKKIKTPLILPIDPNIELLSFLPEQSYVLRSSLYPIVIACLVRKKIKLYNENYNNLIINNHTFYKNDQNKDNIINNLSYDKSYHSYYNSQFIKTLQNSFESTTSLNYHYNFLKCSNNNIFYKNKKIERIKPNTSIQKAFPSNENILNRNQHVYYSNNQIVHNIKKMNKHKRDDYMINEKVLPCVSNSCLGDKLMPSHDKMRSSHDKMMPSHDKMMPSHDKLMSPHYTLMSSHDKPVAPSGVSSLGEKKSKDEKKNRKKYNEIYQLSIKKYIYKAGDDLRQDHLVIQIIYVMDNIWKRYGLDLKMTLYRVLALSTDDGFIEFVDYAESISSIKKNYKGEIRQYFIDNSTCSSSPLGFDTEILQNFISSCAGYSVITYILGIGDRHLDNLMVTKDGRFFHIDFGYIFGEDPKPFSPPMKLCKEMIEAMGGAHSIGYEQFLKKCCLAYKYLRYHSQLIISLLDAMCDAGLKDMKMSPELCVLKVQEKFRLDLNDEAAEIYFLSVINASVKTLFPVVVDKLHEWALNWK
Chain of casein kinase 1 (CK1; PF3D7_1136500) (Q8IHZ9 whole entry): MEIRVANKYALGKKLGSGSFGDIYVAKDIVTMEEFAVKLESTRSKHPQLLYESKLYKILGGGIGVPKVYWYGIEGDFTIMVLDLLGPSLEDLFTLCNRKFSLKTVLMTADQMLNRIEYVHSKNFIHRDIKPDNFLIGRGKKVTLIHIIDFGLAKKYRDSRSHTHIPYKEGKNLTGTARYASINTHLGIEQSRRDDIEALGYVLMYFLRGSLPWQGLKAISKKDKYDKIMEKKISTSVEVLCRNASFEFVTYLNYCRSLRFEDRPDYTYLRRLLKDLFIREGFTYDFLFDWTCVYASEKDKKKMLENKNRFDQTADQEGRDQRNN
Chain of PI4Kβ (PF3D7_0509800) (Q8I406 1-1559): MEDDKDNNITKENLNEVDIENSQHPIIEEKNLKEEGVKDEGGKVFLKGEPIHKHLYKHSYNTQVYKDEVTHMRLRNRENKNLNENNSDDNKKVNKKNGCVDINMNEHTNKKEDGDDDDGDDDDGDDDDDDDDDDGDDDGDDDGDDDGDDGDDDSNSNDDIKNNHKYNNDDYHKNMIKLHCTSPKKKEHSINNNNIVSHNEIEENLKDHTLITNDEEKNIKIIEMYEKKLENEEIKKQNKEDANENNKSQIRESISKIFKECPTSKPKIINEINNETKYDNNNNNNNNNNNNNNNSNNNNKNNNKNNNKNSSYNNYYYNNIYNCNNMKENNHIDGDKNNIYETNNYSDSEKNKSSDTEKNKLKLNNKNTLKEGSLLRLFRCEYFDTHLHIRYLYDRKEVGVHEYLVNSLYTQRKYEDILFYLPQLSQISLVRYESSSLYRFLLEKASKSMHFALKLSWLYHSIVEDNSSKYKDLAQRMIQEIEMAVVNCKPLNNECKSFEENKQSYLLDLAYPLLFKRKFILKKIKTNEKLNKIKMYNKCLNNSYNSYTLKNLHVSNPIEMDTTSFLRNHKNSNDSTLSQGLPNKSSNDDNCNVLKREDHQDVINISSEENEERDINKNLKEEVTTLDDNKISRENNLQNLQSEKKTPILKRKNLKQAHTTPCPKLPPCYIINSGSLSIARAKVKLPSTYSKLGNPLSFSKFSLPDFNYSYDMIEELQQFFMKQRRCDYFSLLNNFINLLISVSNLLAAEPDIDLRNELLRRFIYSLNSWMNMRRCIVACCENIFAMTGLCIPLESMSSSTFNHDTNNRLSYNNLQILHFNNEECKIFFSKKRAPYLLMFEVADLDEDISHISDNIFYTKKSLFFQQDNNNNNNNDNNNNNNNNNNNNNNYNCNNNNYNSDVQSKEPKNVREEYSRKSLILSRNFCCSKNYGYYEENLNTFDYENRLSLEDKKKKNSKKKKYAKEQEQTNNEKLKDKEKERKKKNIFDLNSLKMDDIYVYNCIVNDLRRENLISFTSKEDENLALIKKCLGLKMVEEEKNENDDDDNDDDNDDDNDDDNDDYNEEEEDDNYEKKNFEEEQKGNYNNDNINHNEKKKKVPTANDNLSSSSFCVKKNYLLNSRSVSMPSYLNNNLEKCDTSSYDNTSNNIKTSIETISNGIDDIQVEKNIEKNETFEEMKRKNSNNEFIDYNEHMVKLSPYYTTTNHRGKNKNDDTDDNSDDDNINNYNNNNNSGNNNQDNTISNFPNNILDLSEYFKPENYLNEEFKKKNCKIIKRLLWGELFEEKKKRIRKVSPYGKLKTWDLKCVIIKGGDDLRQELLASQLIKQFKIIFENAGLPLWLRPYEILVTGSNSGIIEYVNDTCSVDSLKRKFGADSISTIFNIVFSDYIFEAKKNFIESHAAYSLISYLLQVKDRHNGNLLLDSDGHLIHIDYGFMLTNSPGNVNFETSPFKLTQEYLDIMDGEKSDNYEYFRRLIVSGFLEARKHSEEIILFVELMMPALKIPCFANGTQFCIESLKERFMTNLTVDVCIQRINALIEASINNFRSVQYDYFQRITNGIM

Structure (SMILES): Nc1ccc(-c2ccc3ncc4ccc(=O)n(-c5cccc(C(F)(F)F)c5)c4c3c2)cn1 [Torin-2]
IC50 (PfPI3K): 0.6 nM

Structure (SMILES): CC(C)n1nc(-c2ccc3oc(N)nc3c2)c2c(N)ncnc21 [sapanisertib]
IC50 [1]: 134 nM
IC50 [2]: 538 nM
inhibition at 5 µM [3]: 30%
inhibition at 2 µM [4]: 89%
transmission-reducing activity (TRA), reduction in mean oocyst formation [5]: 54%
ED90 (dose reducing parasitemia by 90% vs untreated control) (Pf3D7): 0.88 mg/kg
weight loss (humane end point reached before day 7) (Tolerability): ≥ 15%
whole-blood exposure level (below lowest limit of quantification) ([6]; 0.05 mg/kg oral): < 1 ng/mL
whole-blood exposure level (below lowest limit of quantification) ([6]; 0.1 mg/kg oral): < 1 ng/mL
IC50 (PfNF54 strain): 58 nM and 0.018 µg/mL
Kd (PI4Kβ (PF3D7_0509800)): ≤ 50 nM
Kd [7]: ≤ 50 nM and 50 nM
Kd [8]: < 1000 nM
Kd [9]: < 1000 nM
Kd [10]: < 1000 nM
effect on hemoglobin-derived peptide levels (Pf3D7 trophozoites): disruption and reduction
differential susceptibility on PKG knockdown [11]: did not reveal differential susceptibility
differential susceptibility on PI3K knockdown [12]: did not reveal differential susceptibility
differential susceptibility, aptamer-regulatable control line [13]: did not reveal differential susceptibility

IC50 (in vitro): 588 ± 3 nM
Structure (SMILES): COc1ccc(C[C@H](N)C(=O)N[C@H]2[C@@H](O)[C@H](n3cnc4c(N(C)C)ncnc43)O[C@@H]2CO)cc1 [Puromycin]
